Assay [1] deals with peptide-sensitized autologous PHA blasts. The experiment in a line: Polyclonal CTLs stimulated with LMP1 peptides, 51Cr-release assay. It is filed as cell-based, human. Conditions: HLA A2-positive donor; effector:target 20:1; targets 1 μg/ml peptide.
Another assay has as its system CTL clone SB7. Description: LMP1-specific CTL clone SB7, peptide recognition / 51Cr-release assay. It is filed as cell-based, human. Conditions: donor; for recognition of peptide by CTL clone SB7: effector:target 4:1.
For assay [2], the system named is peptide-sensitized HLA-matched PHA blasts. It is filed as cell-based, human.
For assay [3], the system named is peptide-sensitized autologous PHA blasts.
In assay [4] the test system is gp350- and gp85-specific CTL response. To be noted: mouse, in vivo, sc.
The target of another assay is T1, HLA A2 on T2 cells (Homo sapiens, UniProt P04439, D140Y/D185E/D98H/E176V/E277Q/G131W/G231S/I119V/I121R/I166T/I218V/L300P/L318F/N151K/N90K/P208A/P217A/Q86G/Q94H/R138H/R169H/T345S).
T1 construct: using HLA A2-positive T2 cells; endogenous in cells; host or cells: T2 (174xCEM.T2), TAP-negative B x T hybrid cell line
The experiment in a line: MHC stabilisation assay on T2 cells (HLA A2 expression by FACS). To be noted: peptide 200 μg/ml, 26° C. 14-16h then 37° C. 2-3h. It is filed as cell-based. The procedure:
FIG. 1:MHC stablization analysis on T2 cells using potential HLA A2 binding peptides within LMP1. T2 cells were initially incubated with 200 μl of each of the peptides (200 μg/ml) for 14-16h at 26° C. followed by incubation at 37° C. for 2-3h. HLA A2 expression on these cells was analysed by FACS using the BB7.2 antibody. The dotted line indicates the background mean fluorescence intensity for HIA A2 on T2 cells without any peptide. The LMP1 peptides showing significant stablization of HLA A2 molecules on T2 cells are indicated by arrows.
FIG. 6:Effect of variant LMP1 peptides on the HLA A2 binding (panel A) and CTL recognition (panel B). For HLA A2 binding analysis on T2 cells were initially incubated with 200 μl of each of the peptides (200 μg/ml) for 14-16h at 26° C. followed by incubation at 37° C. for 2-3h. HLA A2 expression on these cells was analysed by FACS using BB7.2 antibody (panel A). The dotted line indicates the background mean fluorescence intensity for HLA A2 on T2 cells without any peptide. […] Results are expressed as percent specific lysis. […]
FIG. 8:MHC stabilization analysis on T2 cells using potential HLA A2 binding peptides within gp85 (panel A) and gp350 (panel B). […] HLA A2 expression on these cells was analysed by FACS using the BB7.2 antibody. The dotted line indicates the background mean fluorescence intensity for HLA A2 on T2 cells without any peptide. […]

The subject of the next assay is EBV-positive lymphomas. Conditions: cited from earlier work.

Entries after “also recorded” stand apart in the source; their conditions may differ. Where two headings read alike, the source gives them in different places.

For “YLQQNWWTL (Epstein Barr Virus) [LMP1 residues 159-167]”, in assay [1], the “activation of polyclonal CTLs (specific lysis)” value is “significant activation of polyclonal CTLs; also recorded: weaker response”. The “isolation of peptide-specific CTL clones” value in the assay on CTL clone SB7 was “No CTL clones specific”. In addition, in assay [2] (all three IM patients, peptide 1 μg/ml), the “ex vivo CTL recognition of peptide-sensitized targets” value (from here on “ex vivo CTL recognition”) was “clear recognition”.

As to SLVIVTTFV, the “ex vivo CTL recognition” value in assay [2] was “strong reactivity”. Besides, in assay [3], the “reactivity of polyclonal CTL effectors against peptide-sensitized PHA blasts” value (“reactivity of polyclonal CTL effectors” for short) is recorded as “strong reactivity”. In addition, in assay [4], the “CTL response in splenocytes” value is “induced strong CTL response” and the “lysis of targets by CTLs activated from splenocytes of immunized mice” value (“lysis of targets by CTLs activated” below) was “variable in vitro CTL lysis”.

LMIIPLINV: the “ex vivo CTL recognition” value in assay [2] was “recognised”. For the same molecule, the “reactivity of polyclonal CTL effectors” value in assay [3] was “recognized”.

For the molecule YLLEILWRL (Epstein Barr Virus), in the assay with HLA A2 on T2 cells, the “expression of HLA A2 on T2 cells” value was “significantly increased”. The “recognition of peptide by CTL clone SB7” value with CTL clone SB7 was “efficiently recognized”.

On to TLFIGSHVV, for which the “ex vivo CTL response during acute infection” value in assay [2] is “not detectable”. Besides, in assay [3], the “reactivity of polyclonal CTL effectors” value is reported as “recognized”. For the same molecule, in assay [4], the “CTL response in splenocytes” value is listed as “induced strong CTL response” and the “lysis of targets by CTLs activated” value is on record as “consistently showed strong lysis”.

In the case of VLQWASLAV, the “ex vivo CTL recognition” value in assay [2] is recorded as “strong reactivity; also recorded: recognised”. Besides, in assay [3], the “reactivity of polyclonal CTL effectors” value is “strong reactivity”. In assay [4], the “CTL response in splenocytes” value is “induced strong CTL response” and the “lysis of targets by CTLs activated” value is “variable in vitro CTL lysis”.

On to YFLEILWGL, for which the “expression of HLA A2 on T2 cells” value on HLA A2 on T2 cells is reported as “significantly increased”. Also, the “recognition of peptide by CTL clone SB7” value with CTL clone SB7 is on record as “no CTL activity”.

B1: gp350: highly purified EBV structural glycoprotein gp350, subunit preparation (recombinant and affinity purified) (protein, UniProt P03200 1-907, looked up)
Envelope glycoprotein GP350: MEAALLVCQYTIQSLIHLTGEDPGFFNVEIPEFPFYPTCNVCTADVNVTINFDVGGKKHQLDLDFGQLTPHTKAVYQPRGAFGGSENATNLFLLELLGAGELALTMRSKKLPINVTTGEEQQVSLESVDVYFQDVFGTMWCHHAEMQNPVYLIPETVPYIKWDNCNSTNITAVVRAQGLDVTLPLSLPTSAQDSNFSVKTEMLGNEIDIECIMEDGEISQVLPGDNKFNITCSGYESHVPSGGILTSTSPVATPIPGTGYAYSLRLTPRPVSRFLGNNSILYVFYSGNGPKASGGDYCIQSNIVFSDEIPASQDMPTNTTDITYVGDNATYSVPMVTSEDANSPNVTVTAFWAWPNNTETDFKCKWTLTSGTPSGCENISGAFASNRTFDITVSGLGTAPKTLIITRTATNATTTTHKVIFSKAPESTTTSPTLNTTGFADPNTTTGLPSSTHVPTNLTAPASTGPTVSTADVTSPTPAGTTSGASPVTPSPSPWDNGTESKAPDMTSSTSPVTTPTPNATSPTPAVTTPTPNATSPTPAVTTPTPNATSPTLGKTSPTSAVTTPTPNATSPTLGKTSPTSAVTTPTPNATSPTLGKTSPTSAVTTPTPNATGPTVGETSPQANATNHTLGGTSPTPVVTSQPKNATSAVTTGQHNITSSSTSSMSLRPSSNPETLSPSTSDNSTSHMPLLTSAHPTGGENITQVTPASISTHHVSTSSPAPRPGTTSQASGPGNSSTSTKPGEVNVTKGTPPQNATSPQAPSGQKTAVPTVTSTGGKANSTTGGKHTTGHGARTSTEPTTDYGGDSTTPRPRYNATTYLPPSTSSKLRPRWTFTSPPVTTAQATVPVPPTSQPRFSNLSMLVLQWASLAVLTLLLLLVMADCAFRRNLSTSHTYTTPPYDDAETYV
On to B1, for which the “tumor formation / tumor outgrowth” value in the assay on EBV-positive lymphomas (cotton-top tamarins) is “inhibited tumor formation”. Further, the serum neutralizing antibodies entry in the assay with EBV-positive lymphomas (subcutaneously with adjuvants (muramyl dipeptide or ISCOMs)) was “induced high levels of serum neutralizing antibodies”.

Source of the values: patent publication US6723695B1, “CTL epitopes from EBV” (priority 1997, dated 2004).
